Our source for the TGI values is PubChem BioAssay (NCI).

SMILES strings stand for the structures.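 Test compounds were applied to cells in 96-well plates for 48 hours at 5 doses. Definition used: TGI = concentration required for complete inhibition of growth.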

Some test systems named below: A498 renal; A549 NSCLC; CCRF-CEM leukemia; DU-145 prostate; HCT-116 colon; MALME-3M melanoma; MCF7 breast; MDA-MB-435; NCI-H226 lung; NCI-H460 lung; NCI/ADR-RES ovarian; OVCAR-3 ovarian; OVCAR-8 ovarian; RXF 393 renal; SK-MEL-5 melanoma; SNB-19 CNS; SNB-75 CNS; SW-620 colon; NCI-H23 lung; HL-60(TB) leukemia.
What all share (assay): NCI anticancer screen, dose series, 48 h

Turning to `Cc1ccc(C)n1-n1c(-c2ccccc2)n[nH]c1=O`, the TGI in the experiment with A498 renal, in the experiment with A549 NSCLC, with CCRF-CEM leukemia, in the experiment on DU-145 prostate, in the experiment on HCT-116 colon and with MALME-3M melanoma was over 100 µM in each case. The TGI in the experiment on MCF7 breast was over 100 µM; in the experiment with MDA-MB-435, 53.6 µM; with NCI-H226 lung it was over 100 µM; with NCI-H460 lung, over 100 µM; with NCI/ADR-RES ovarian, over 100 µM; in the experiment on OVCAR-3 ovarian, over 100 µM. Also, the TGI in the experiment with OVCAR-8 ovarian, with RXF 393 renal, with SK-MEL-5 melanoma, in the experiment on SNB-19 CNS, with SNB-75 CNS and in the experiment with SW-620 colon was over 100 µM in each case.

Take `O=C(O)CCC(NC(=O)c1ccc(CNc2nc3ccccc3nc2C(=O)O)cc1)C(=O)O` (centres undefined): the TGI with A498 renal, in the experiment on A549 NSCLC, in the experiment on CCRF-CEM leukemia, in the experiment on DU-145 prostate, with HCT-116 colon and in the experiment on MALME-3M melanoma was over 100 µM throughout. The TGI in the experiment with MCF7 breast, with MDA-MB-435, with NCI-H226 lung, in the experiment on NCI-H23 lung, with NCI/ADR-RES ovarian and with OVCAR-3 ovarian was over 100 µM in each case. For the same molecule, the TGI in the experiment with OVCAR-8 ovarian, with SK-MEL-5 melanoma, in the experiment with SNB-19 CNS, with SNB-75 CNS and with SW-620 colon was over 100 µM in each case.

As for `C[C@]12CC/C(=N\OCCN3CCCCC3)C=C1CCC1C2CC[C@@]2(C)C1CC[C@]2(C)O` (some centres undefined), the TGI in the experiment on A498 renal is 15.4 µM; in the experiment with A549 NSCLC, 35 µM; in the experiment with CCRF-CEM leukemia, 11.3 µM; in the experiment on DU-145 prostate, 44.8 µM; in the experiment on HCT-116 colon it was 21.3 µM; with MALME-3M melanoma, 23.2 µM. Also, the TGI came to 71.7 µM with MCF7 breast; 6.71 µM with MDA-MB-435; 14.2 µM in the experiment with NCI-H226 lung; 33.5 µM in the experiment with NCI-H23 lung; 17.5 µM in the experiment on NCI-H460 lung; 20.5 µM in the experiment on NCI/ADR-RES ovarian. In addition, the TGI with OVCAR-3 ovarian was found to be 42.8 µM; in the experiment with OVCAR-8 ovarian, 27 µM; in the experiment with RXF 393 renal, 56.5 µM; in the experiment with SK-MEL-5 melanoma, 32.4 µM; with SNB-19 CNS it was 30 µM; in the experiment on SNB-75 CNS, 24.8 µM. In addition, the TGI with SW-620 colon was found to be 62.8 µM.

`CC(=O)Nc1ccc2cc3[nH]c4cc(NC(C)=O)ccc4c3nc2c1`: the TGI in the experiment with A498 renal, in the experiment on A549 NSCLC, with CCRF-CEM leukemia, in the experiment with DU-145 prostate, with HCT-116 colon and in the experiment on MALME-3M melanoma was over 100 µM in each case. The TGI with MCF7 breast, in the experiment with MDA-MB-435, with NCI-H226 lung, in the experiment with NCI-H23 lung, with NCI-H460 lung and with NCI/ADR-RES ovarian was over 100 µM in each case. For the same molecule, the TGI in the experiment with OVCAR-3 ovarian, in the experiment on OVCAR-8 ovarian, in the experiment on RXF 393 renal, with SK-MEL-5 melanoma, with SNB-19 CNS and with SNB-75 CNS was over 100 µM in each case. Further, in the experiment on SW-620 colon, the TGI was over 100 µM.

For the molecule `O=S(=O)(OI(O)CC(F)(F)F)C(F)(F)F`, the TGI with A498 renal, in the experiment with A549 NSCLC, in the experiment with CCRF-CEM leukemia, with DU-145 prostate, in the experiment with HCT-116 colon and in the experiment on HL-60(TB) leukemia was over 100 µM in each case. Further, the TGI with MCF7 breast, in the experiment on MDA-MB-435, in the experiment on NCI-H226 lung, in the experiment on NCI-H23 lung, in the experiment on NCI-H460 lung and with NCI/ADR-RES ovarian was over 100 µM throughout. For the same molecule, the TGI in the experiment with OVCAR-3 ovarian, in the experiment with OVCAR-8 ovarian, in the experiment with RXF 393 renal, with SK-MEL-5 melanoma, with SNB-75 CNS and in the experiment with SW-620 colon was over 100 µM in each case.

Take `CC(NC(NC(C)C12CC3CC(CC(C3)C1)C2)=C(C(Cl)=C(Cl)Cl)[N+](=O)[O-])C12CC3CC(CC(C3)C1)C2` (centres undefined): the TGI is over 100 µM in the experiment on A498 renal; 25.7 µM with A549 NSCLC; 4.64 µM in the experiment with CCRF-CEM leukemia; over 100 µM in the experiment with DU-145 prostate; 40 µM with HCT-116 colon; over 95.6 µM in the experiment on MALME-3M melanoma. The TGI in the experiment with MCF7 breast was over 58.7 µM; in the experiment on MDA-MB-435, over 100 µM; in the experiment on NCI-H226 lung it was over 61.7 µM; in the experiment on NCI-H23 lung it was 34.3 µM; with NCI-H460 lung, 21.8 µM; in the experiment with NCI/ADR-RES ovarian, over 100 µM. In addition, the TGI with OVCAR-3 ovarian is 64.8 µM; with OVCAR-8 ovarian, 7.41 µM; in the experiment on RXF 393 renal, 62.9 µM; in the experiment on SK-MEL-5 melanoma, 36.3 µM; with SNB-19 CNS, over 100 µM; with SNB-75 CNS, over 100 µM. This molecule yielded a TGI in the experiment with SW-620 colon of 62.1 µM.

Turning to `COC(=O)c1c(C(=O)OC)c2c3ccccc3n(C)c2c2c1c1ccccc1n2C`, the TGI in the experiment on A498 renal, in the experiment with A549 NSCLC, in the experiment on CCRF-CEM leukemia, in the experiment with DU-145 prostate, in the experiment with HCT-116 colon and with MALME-3M melanoma was over 100 µM each time. The TGI in the experiment with MCF7 breast, with MDA-MB-435, with NCI-H226 lung, with NCI-H23 lung, in the experiment on NCI-H460 lung and in the experiment on NCI/ADR-RES ovarian was over 100 µM each time. In addition, the TGI in the experiment with OVCAR-8 ovarian was over 100 µM; with SK-MEL-5 melanoma, over 100 µM; in the experiment with SNB-19 CNS it was 83.3 µM; in the experiment with SNB-75 CNS, over 100 µM; with SW-620 colon, over 100 µM.

For the molecule `C=C1CC(COc2ccc3c(C)cc(=O)oc3c2)(c2ccccc2)OC1=O` (centres undefined), the TGI in the experiment on A498 renal is 14.1 µM; in the experiment on A549 NSCLC, 25 µM; in the experiment with DU-145 prostate, 6.68 µM; in the experiment on HCT-116 colon, 2.73 µM; with MALME-3M melanoma, 1.9 µM; with MCF7 breast it was 2.71 µM. The TGI with MDA-MB-435 was found to be 8.03 µM; in the experiment on NCI-H226 lung, 15.7 µM; in the experiment with NCI-H23 lung, 5.53 µM; in the experiment on NCI-H460 lung it was 23.5 µM; with NCI/ADR-RES ovarian, 16.6 µM; in the experiment with OVCAR-3 ovarian, 5.59 µM. The TGI was determined as 5.57 µM in the experiment on OVCAR-8 ovarian; 5.49 µM in the experiment with SK-MEL-5 melanoma; 29 µM in the experiment with SNB-19 CNS; 19.2 µM in the experiment on SNB-75 CNS; 2.31 µM in the experiment on SW-620 colon.
